Reference: ChEMBL document CHEMBL1641363, “Fragment-based discovery of 6-substituted isoquinolin-1-amine based ROCK-I inhibitors” (Bioorg Med Chem Lett, 2011)

Key:
[1] = target: Serine/threonine-protein kinase SIK2 (Homo sapiens) (UniProt Q9H0K1); details: 10 uM
Description: Inhibition of SNFILK2 at 10 uM

[2] = target: Rho-associated protein kinase 2 (Homo sapiens, UniProt O75116); details: 10 uM
Description: Inhibition of ROCK2 at 10 uM

[3] = Oral bioavailability in C57 mouse; type: ADME, organism-based; details: in vivo
[4] = target: T1, Tyrosine-protein kinase receptor TYRO3 (Homo sapiens) (UniProt Q06418); details: 10 uM
T1 sequence (whole entry): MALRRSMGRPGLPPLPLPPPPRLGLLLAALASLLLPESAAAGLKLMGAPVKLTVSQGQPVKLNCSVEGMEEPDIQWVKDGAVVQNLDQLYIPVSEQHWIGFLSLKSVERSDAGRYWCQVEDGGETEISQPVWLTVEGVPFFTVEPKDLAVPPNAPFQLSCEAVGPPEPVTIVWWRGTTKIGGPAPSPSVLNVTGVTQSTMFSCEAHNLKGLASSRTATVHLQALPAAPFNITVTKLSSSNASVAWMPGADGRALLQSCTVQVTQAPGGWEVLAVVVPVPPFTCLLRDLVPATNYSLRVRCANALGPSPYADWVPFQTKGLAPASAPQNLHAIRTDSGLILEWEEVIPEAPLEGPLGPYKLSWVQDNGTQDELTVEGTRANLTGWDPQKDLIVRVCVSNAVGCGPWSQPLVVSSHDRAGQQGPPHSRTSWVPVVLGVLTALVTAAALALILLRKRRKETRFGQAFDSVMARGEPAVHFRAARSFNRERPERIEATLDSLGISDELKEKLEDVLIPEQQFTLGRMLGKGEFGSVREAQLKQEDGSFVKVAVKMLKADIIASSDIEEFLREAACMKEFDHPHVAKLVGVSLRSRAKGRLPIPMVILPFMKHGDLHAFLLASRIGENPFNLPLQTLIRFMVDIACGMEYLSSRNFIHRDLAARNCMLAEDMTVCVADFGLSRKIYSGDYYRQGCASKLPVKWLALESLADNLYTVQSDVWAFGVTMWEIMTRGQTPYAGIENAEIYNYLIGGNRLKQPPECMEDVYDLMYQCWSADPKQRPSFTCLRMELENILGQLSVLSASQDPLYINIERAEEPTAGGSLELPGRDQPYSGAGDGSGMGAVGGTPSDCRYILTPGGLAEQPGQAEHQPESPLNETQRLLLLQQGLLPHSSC
Description: Inhibition of RSE at 10 uM

[5] = Half life in mouse liver microsome; type: ADME; details: liver microsomes
[6] = target: T2, cAMP-dependent protein kinase catalytic subunit PRKX (Homo sapiens) (UniProt P51817); details: 10 uM
T2 sequence (whole entry): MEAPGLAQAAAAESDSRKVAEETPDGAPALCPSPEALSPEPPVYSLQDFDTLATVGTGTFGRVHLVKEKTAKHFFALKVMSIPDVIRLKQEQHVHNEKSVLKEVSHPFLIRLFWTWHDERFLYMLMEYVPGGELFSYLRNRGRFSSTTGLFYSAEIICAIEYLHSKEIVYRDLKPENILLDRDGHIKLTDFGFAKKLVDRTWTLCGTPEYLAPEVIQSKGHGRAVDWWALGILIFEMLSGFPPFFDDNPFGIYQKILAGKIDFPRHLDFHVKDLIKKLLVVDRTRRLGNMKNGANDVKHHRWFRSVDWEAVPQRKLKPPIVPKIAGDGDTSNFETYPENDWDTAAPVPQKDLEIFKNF
Description: Inhibition of PRKX at 10 uM

[7] = target: T3, Ephrin type-A receptor 8 (Homo sapiens) (UniProt P29322); details: 10 uM
T3 sequence (whole entry): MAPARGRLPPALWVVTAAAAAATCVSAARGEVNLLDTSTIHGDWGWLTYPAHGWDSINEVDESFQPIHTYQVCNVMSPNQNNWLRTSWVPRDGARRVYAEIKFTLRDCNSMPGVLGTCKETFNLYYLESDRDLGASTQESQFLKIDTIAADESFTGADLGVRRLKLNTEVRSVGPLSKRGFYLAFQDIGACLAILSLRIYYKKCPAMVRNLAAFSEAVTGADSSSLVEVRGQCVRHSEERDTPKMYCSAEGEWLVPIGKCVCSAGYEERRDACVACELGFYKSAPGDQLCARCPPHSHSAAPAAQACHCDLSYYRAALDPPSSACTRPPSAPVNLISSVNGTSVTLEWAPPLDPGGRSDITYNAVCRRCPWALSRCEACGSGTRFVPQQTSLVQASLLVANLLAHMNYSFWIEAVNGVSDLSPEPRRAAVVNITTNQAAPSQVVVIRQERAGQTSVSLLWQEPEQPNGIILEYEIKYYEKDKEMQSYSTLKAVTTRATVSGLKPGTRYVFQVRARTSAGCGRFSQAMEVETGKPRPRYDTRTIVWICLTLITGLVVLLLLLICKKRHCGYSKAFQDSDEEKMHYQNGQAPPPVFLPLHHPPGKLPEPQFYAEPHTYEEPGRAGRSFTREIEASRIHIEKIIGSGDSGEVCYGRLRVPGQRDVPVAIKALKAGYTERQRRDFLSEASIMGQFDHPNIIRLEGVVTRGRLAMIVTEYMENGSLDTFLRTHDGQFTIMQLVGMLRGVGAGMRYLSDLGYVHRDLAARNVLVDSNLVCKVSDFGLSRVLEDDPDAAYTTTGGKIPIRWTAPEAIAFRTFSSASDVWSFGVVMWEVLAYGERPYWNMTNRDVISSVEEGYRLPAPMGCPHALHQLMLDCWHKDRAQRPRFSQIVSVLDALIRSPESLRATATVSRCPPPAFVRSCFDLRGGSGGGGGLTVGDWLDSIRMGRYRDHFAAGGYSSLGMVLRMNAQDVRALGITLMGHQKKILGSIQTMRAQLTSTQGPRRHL
Description: Inhibition of EPHA8 at 10 uM

[8] = Half life in rat liver microsome; type: ADME; details: liver microsomes
[9] = target: Platelet-derived growth factor receptor alpha (Homo sapiens) (UniProt P16234); details: 10 uM
Description: Inhibition of PDGFRA at 10 uM

[10] = target: Serine/threonine-protein kinase PLK3 (Homo sapiens) (UniProt Q9H4B4); details: 10 uM
Description: Inhibition of PLK3 at 10 uM

[11] = Plasma clearance in C57 mouse; type: ADME, organism-based
[12] = target: Casein kinase I isoform alpha (Homo sapiens) (UniProt P48729); details: 10 uM
Description: Inhibition of CK1 at 10 uM

[13] = Half life in rat hepatocyte; type: ADME, cell-based, Liver; details: hepatocytes
[14] = target: Tyrosine-protein kinase Fes/Fps (Homo sapiens) (UniProt P07332); details: 10 uM
Description: Inhibition of FES at 10 uM

[15] = target: Mitogen-activated protein kinase kinase kinase kinase 4 (Homo sapiens) (UniProt O95819); details: 10 uM
Description: Inhibition of HGK at 10 uM

[16] = Half life in C57 mouse; type: ADME, organism-based; details: in vivo
[17] = target: Angiopoietin-1 receptor (Homo sapiens) (UniProt Q02763); details: 10 uM
Description: Inhibition of Tie2 at 10 uM

[18] = Permeability from apical to basolateral side of human Caco2 cells; type: ADME, cell-based; details: Caco-2, read-out: permeability
[19] = target: Voltage-gated inwardly rectifying potassium channel KCNH2 (Homo sapiens, UniProt Q12809); test: Displacement of [3H]dofetilide from human ERG

Chain of Angiopoietin-1 receptor (Homo sapiens) (Q02763 whole entry): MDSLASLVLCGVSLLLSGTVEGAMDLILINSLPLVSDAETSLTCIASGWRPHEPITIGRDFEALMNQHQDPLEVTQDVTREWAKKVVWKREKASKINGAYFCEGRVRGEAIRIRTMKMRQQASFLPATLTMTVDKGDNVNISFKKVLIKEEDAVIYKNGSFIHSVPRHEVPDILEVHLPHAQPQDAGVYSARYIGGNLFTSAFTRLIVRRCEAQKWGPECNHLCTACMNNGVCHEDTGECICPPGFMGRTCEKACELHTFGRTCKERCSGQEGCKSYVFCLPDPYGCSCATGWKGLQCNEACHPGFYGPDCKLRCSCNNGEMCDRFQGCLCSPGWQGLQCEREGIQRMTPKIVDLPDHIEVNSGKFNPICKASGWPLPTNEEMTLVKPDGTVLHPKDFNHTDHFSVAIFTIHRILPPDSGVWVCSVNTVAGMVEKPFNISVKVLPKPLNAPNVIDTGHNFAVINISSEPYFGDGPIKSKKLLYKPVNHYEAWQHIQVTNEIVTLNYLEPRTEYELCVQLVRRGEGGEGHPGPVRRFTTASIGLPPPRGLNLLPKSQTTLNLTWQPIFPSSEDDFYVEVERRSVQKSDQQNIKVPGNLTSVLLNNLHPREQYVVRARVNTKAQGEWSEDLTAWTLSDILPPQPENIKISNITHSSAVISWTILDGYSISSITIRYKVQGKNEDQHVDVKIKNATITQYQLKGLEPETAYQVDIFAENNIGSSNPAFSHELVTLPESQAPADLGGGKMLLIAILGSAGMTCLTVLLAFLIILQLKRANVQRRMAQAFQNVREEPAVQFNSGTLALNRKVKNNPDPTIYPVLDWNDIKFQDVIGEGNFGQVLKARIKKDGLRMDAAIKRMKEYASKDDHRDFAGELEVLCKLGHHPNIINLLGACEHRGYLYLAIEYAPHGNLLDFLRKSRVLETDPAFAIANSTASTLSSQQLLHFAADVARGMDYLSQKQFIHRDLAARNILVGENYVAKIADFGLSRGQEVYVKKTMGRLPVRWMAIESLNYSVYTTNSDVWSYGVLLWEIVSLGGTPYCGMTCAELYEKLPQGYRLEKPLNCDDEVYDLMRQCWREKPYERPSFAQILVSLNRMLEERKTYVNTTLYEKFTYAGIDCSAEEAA
Chain of Tyrosine-protein kinase Fes/Fps (Homo sapiens) (P07332 whole entry): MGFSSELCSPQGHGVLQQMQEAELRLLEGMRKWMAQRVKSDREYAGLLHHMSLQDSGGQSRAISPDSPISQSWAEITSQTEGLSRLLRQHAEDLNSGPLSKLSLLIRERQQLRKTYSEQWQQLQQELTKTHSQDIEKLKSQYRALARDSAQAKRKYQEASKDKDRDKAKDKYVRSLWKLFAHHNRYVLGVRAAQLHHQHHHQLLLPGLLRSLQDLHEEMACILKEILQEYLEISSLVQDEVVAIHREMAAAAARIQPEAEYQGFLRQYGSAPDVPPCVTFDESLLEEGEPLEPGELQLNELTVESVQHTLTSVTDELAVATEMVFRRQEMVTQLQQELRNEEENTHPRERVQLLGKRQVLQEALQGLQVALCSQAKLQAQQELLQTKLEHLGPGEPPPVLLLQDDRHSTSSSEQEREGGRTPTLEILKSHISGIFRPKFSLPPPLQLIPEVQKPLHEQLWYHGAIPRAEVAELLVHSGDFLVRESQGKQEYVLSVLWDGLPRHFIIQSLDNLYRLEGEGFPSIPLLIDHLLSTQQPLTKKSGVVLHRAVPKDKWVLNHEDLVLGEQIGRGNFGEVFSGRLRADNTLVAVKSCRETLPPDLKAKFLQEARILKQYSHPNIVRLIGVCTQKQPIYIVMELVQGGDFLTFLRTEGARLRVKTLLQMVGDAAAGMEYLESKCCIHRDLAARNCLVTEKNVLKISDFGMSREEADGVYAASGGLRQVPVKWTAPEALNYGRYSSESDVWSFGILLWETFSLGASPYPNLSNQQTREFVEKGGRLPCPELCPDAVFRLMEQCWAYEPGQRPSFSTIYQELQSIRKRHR
Chain of Mitogen-activated protein kinase kinase kinase kinase 4 (Homo sapiens) (O95819 2-1239 limits assumed): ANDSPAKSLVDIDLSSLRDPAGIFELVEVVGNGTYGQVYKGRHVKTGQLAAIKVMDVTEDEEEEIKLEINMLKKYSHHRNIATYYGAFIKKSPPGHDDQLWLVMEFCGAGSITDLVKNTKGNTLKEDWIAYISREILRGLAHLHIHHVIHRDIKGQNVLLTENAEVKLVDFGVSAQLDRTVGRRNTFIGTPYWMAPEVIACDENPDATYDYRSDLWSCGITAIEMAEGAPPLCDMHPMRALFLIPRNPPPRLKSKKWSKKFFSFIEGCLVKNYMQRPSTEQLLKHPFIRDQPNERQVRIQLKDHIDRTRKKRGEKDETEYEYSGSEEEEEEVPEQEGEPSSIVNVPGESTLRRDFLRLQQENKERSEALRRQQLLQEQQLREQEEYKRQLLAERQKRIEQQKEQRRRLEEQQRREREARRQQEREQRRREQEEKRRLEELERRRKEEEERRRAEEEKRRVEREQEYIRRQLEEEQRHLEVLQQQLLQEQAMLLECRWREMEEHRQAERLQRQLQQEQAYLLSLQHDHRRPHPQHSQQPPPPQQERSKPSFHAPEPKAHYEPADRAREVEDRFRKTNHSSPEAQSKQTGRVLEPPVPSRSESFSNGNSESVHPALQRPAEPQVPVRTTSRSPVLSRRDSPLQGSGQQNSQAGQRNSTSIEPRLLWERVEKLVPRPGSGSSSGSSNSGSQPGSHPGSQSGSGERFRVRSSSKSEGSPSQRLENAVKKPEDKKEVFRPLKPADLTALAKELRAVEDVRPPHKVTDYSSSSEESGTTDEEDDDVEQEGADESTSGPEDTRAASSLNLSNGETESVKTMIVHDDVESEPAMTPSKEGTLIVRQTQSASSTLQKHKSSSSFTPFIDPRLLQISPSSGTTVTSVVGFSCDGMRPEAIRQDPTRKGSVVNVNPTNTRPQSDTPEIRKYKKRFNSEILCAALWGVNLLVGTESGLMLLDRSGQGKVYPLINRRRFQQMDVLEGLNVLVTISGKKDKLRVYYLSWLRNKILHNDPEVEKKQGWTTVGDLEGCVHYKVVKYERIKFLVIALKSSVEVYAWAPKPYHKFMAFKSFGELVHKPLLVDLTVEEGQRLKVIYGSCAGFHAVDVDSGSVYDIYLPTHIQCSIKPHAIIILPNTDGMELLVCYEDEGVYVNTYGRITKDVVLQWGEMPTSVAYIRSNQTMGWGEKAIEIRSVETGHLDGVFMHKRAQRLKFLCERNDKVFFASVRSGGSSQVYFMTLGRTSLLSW
Chain of Platelet-derived growth factor receptor alpha (Homo sapiens) (P16234 whole entry): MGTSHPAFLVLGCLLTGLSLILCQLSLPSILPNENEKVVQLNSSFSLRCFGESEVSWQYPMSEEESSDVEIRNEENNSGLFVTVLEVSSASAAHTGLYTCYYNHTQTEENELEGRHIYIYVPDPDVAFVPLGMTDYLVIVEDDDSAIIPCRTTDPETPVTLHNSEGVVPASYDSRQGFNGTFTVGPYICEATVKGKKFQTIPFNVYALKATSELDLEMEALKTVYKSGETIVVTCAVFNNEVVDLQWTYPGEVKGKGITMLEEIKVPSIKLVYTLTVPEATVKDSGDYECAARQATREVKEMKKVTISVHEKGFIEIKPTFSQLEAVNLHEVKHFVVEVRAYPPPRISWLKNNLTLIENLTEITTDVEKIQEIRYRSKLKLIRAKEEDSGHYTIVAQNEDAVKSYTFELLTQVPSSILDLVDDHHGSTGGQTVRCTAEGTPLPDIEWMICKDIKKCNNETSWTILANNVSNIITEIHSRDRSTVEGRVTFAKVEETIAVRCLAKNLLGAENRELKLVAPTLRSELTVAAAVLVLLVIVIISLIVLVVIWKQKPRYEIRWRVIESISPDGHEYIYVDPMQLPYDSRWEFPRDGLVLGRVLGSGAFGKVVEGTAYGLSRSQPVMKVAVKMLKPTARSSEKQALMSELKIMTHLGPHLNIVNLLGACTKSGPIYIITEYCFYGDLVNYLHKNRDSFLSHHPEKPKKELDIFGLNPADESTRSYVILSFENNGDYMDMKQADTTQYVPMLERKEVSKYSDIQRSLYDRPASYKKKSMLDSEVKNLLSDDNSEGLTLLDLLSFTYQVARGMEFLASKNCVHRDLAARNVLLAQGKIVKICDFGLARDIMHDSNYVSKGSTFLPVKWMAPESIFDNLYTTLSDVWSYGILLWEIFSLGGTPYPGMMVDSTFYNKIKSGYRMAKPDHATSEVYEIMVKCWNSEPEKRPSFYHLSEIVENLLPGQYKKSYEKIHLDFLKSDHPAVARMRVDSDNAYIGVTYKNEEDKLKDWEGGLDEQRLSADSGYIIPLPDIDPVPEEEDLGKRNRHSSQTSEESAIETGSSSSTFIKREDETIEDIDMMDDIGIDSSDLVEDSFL
Chain of Casein kinase I isoform alpha (Homo sapiens) (P48729 2-337 limits assumed): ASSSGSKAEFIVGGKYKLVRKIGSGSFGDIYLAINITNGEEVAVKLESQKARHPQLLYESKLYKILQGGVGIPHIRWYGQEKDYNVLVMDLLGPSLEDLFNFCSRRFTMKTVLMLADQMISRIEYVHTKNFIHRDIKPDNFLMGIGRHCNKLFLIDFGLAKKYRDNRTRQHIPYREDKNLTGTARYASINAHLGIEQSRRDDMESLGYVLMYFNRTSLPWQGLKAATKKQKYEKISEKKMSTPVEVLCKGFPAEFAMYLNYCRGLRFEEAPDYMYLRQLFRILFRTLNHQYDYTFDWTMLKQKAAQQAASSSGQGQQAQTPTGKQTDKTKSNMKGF

## Nc1nccc2cc(O[C@H]3CCCNC3)ccc12
[1]
  inhibition: > 80%
[2]
  inhibition: > 80%
[3]
  bioavailability: > 75%
[4]
  inhibition: > 80%
[5]
  half-life: > 2 h
[6]
  inhibition: > 80%
[7]
  inhibition: > 80%
[8]
  half-life: > 2 h
[9]
  inhibition: > 80%
[10]
  inhibition: > 80%
[11]
  clearance: 9.5 mL/min/kg
[12]
  inhibition: > 80%
[13]
  half-life: 1.17 h
[14]
  inhibition: > 80%
[15]
  inhibition: > 80%
[16]
  half-life: 5.8 h
[17]
  inhibition: > 80%
[18]
  Papp A→B: 6.3 ×10⁻⁶ cm/s
[19]
  Ki: 20 µM
